{
  "source": "patent US20220062340A1",
  "about": "“IMMUNOTHERAPEUTIC METHODS AND COMPOSITIONS” (KING'S COLLEGE LONDON, priority 2018, published 2022)",
  "key": {"[1]": {"biological_target": "T1, RAR γ (Homo sapiens, UniProt P13631)", "T1 sequence (P13631 1-454)": "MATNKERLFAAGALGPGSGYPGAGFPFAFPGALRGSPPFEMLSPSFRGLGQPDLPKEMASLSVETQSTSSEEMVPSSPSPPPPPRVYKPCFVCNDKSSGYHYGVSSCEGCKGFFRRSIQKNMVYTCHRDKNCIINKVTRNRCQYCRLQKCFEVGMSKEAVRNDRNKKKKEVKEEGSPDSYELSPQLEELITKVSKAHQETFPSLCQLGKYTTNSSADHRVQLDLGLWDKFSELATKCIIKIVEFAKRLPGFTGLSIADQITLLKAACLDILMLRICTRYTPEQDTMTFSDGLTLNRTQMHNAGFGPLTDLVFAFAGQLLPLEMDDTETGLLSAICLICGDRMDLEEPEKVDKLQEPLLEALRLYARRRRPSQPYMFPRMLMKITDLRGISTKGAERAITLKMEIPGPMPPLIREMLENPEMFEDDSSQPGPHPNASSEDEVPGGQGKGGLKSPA", "experiment": "Selectivity profile against human RARs (RARγ)", "type": "biochemical"}, "[2]": {"tested_on": "Ex vivo expanded Tregs", "experiment": "IL-17 and IFNγ production under pro-inflammatory cytokine challenge (ELISA)", "type": "cell-based, human", "conditions": "Tregs expanded ex vivo in the presence of the agonist, FIG. 2f", "method": "Cytokine concentrations were measured using the Ready-SET-Go sandwich ELISA kits from eBioscience.\nEx vivo expanded Tregs were activated with CD3/CD28 beads at a 1:20 ratio and cultured at 10^6cells/m1 in X-VIVO for 5 days at 37° C./5% CO2, supplemented with the following cytokine cocktail: A) IL-2 (10 IU/mL, Proleukin); (B) IL-2, IL-1 (10 ng/mL), IL-6 (4 ng/mL) and transforming growth factor-β (TGF-β (5 ng/mL), IL-21 (25 ng/mL), IL-23 (25 ng/mL) (all R&D Systems). Supernatant IL-17 and interferon gamma (IFNγ) concentrations were measured by ELISA."}, "[3]": {"tested_on": "FOXP3 in Tregs", "experiment": "FOXP3 expression of ex vivo expanded Tregs", "type": "cell-based, human", "conditions": "Tregs expanded in the presence of the agonist", "method": "(§1) FACS-sorted Treg populations were plated at 1×10^6 or 0.5×10^6 in X-VIVO-15 medium and activated with anti-CD3/anti-CD28 coated beads (Dynabeads®, Invitrogen, Paisley, UK) at 1:1 bead: cell ratio. Rapamycin was added at day 0 of culture at a final concentration of 100 nM/L +/−ATRA 1 nM/L or RAR568 1 nM/L. Next, 1,000 IU/ml recombinant human IL-2 (rhlL-2) (Proleukin®, Novartis, Camberley, UK) was added at day 5 of culture. Cells were re-stimulated every 10-12 days and expanded for a total of 24-30 days. The phenotype and suppressive ability were assessed at the end of the culture period.\n(§2) Flow cytometry panels have been designed to assess the subtypes of regulatory T cells in patients with CD as well as their expression of gut homing molecules. Gating was performed based on natural populations when assessing for CD4^+CD25^highCD127low populations, as well as for CD45RA^+ Treg populations. Additionally, to minimize bias in the assessment of expression of gut homing markers and transcription factors, a fluorochrome minus one (FMO) panel was added for each marker of interest in each experiment that was performed."}, "[4]": {"tested_on": "CD62L on Tregs", "experiment": "CD62L expression following ex vivo expansion", "type": "cell-based, human", "conditions": "FIG. 9", "source_text": "To address the balance between regulatory and effector T cells in the lamina propria of patients with CD, we sought to develop a highly suppressive, phenotypically stable population of autologous ex vivo expanded Tregs that were licensed to traffic to the gut by high level expression of α4β7. These cells could then be utilized as an autologous cell-based therapy for CD. We compared the efficacy of ATRA with RAR568 at inducing α4β7, to determine which agent would be more suitable for downstream application in a clinical trial of Treg therapy for CD. As previously defined^22, our standard culture conditions used the CD4^+CD25^hiCD127^loCD45RA^+ nïave Treg subset, cultured in the presence of rapamycin (RAPA) and high dose IL-2. […] Additionally, cells cultured in the presence of RAR568 cumulatively expressed more α4β7 than those cultured in the presence of ATRA (95.89±1.93 vs 74.21±25.89, p=0.024; FIG. 2b). […] The expression of CD62L, required for homing to the lymph nodes and the effective interaction between integrin α4β7 and its ligand MAdCAM-1 was maintained following ex vivo expansion, irrespective of retinoid treatment (FIG. 9)."}, "[5]": {"tested_on": "MAdCAM-1", "experiment": "In-vitro trafficking assay, MAdCAM-1 coated Ibidi flow chamber", "type": "cell-based, human", "conditions": "agonist-treated Tregs from CD patients compared to cells expanded under standard conditions", "method": "Ibidi (Martinsreid, Germany) μ-Slides VI″ were coated with recombinant human MAdCAM-1 (R&D Systems, Minneapolis, Minn.), at a concentration of 10μg/ml and incubated overnight. Cells from two CD patients that had previously undergone ex vivo expansion under two parallel conditions (Rapa and Rapa+RAR568) and had been frozen in liquid nitrogen were defrosted and rested overnight. Rested cells were then activated with rhCCL25 (R&D systems) and passed through the coated Ibidi flow chamber at a rate of 1 dyne/cm^2. The total number of cells, as well as those rolling, adherent and crawling was quantified from six randomly selected fields of view per treatment.\nIn order to assess the physiological relevance of the induction of α4β7 expression by RAR568, treated and untreated Tregs from CD patients were passed through a MAdCAM-1 coated flow chamber (FIG. 10). The total number of cells adherent to the chamber, as well as their stages of rolling, adhesion and crawling, were compared to cells that were expanded under standard conditions."}, "[6]": {"tested_on": "Effector T cells (Teff)", "experiment": "Treg suppression assay (proliferation of CFSE-labelled Teff)", "type": "cell-based, human", "conditions": "lowest (8:1) Teff:Treg titration, FIG. 2e", "method": "Effector T cells (Teff) were labelled with carboxyfluorescein succinimidyl ester (CFSE, Invitrogen) according to standard protocols. Cells were washed with phosphate buffered saline (PBS) to remove excess protein. Cells were then incubated with a 1 μM/L CFSE solution in the dark at room temperature for 4 minutes. The reaction was then quenched with 9 ml of complete medium.\nTeff were activated with anti-CD3/anti-CD28 micro beads at a bead: Teff ratio of 0.02:1. 1×10^5 Teff were then cultured either alone or with Tregs in serial dilutions. The ratios of Teff: Treg were 1:1, 2:1, 4:1, and 8:1. This was done in X-VIVO-15 and proliferation rates were assessed by flow cytometry after 5 days of incubation.\nPercentage suppression (S) of proliferation was calculated using the following formula:\nWhere c=percentage of proliferating precursors in the presence of Tregs and d=percentage of proliferating precursors in the absence of Tregs."}, "[7]": {"tested_on": "integrin β7 on Tregs", "experiment": "Dose response of integrin β7 induction on expanded Tregs", "type": "cell-based", "conditions": "Homo sapiens; Tregs in in vitro culture, FIG. 2c; read-out: EC50 to induce the expression of integrin β7", "method": "as §1, §2"}},
  "note": "pEC50: −log10 of the molar value.",
  "data": [
    {"smiles": "CCOc1c(Cl)cc(C(=O)Nc2ccc(C(=O)O)c(C)c2)cc1OC(C)C", "note": "[RAR568]", "values": [
      {"measurement": "selectivity over RAR γ", "setting": "[1]", "result": "> 13,000 fold"},
      {"measurement": "IFNγ production following pro-inflammatory cytokine challenge", "setting": "[2]", "result": "did not produce"},
      {"measurement": "IL-17 production following pro-inflammatory cytokine challenge", "setting": "[2]", "result": "did not produce"},
      {"measurement": "FOXP3 expression of expanded Tregs", "setting": "[3]; mean ± SD", "result": "96.99% ±3.51"},
      {"measurement": "FOXP3 expression, range", "setting": "[3]; range", "result": "91.5-99.8"},
      {"measurement": "expression of CD62L following expansion", "setting": "[4]", "result": "not affected"},
      {"measurement": "total cells and cells rolling, adherent and crawling in MAdCAM-1 coated flow chamber", "setting": "[5]", "result": "significantly more total cells as well as cells at each condition of migration"},
      {"measurement": "Suppressive ability of expanded Tregs", "setting": "[6]", "result": "highly suppressive even at the lowest (8:1) titration"},
      {"measurement": "pEC50", "setting": "[7]", "result": 11.00}
    ]}
  ]
}
